Test results from patent US20240124442A1, “TRICYCLIC-AMIDO-BICYCLIC PRMT5 INHIBITORS” (AMGEN INC., priority 2021, published 2024).

Key:
[1] = system: HCT116 MTAP null cells; experiment: HCT116 MTAP null cell line proliferation / cell viability (CellTiter-Glo, 6 days); format: cell-based; conditions: 144 h; HCT116 MTAP null cells, 6 days treatment, CellTiter-Glo cell viability; read-out: HCT-116 MTAP null IC50
How it was run: (§1)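 Anti-proliferative IC50s were derived from CellTiter-Glo signal in HCT116 parent and MTAP-null cells after six days on compound. Serial dilutions reached top concentrations of 1, 10 or 50 μM, with DMSO-only wells as control.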

[2] = system: HCT116 WT cells; experiment: HCT116 WT (parent) cell line proliferation / cell viability (CellTiter-Glo, 6 days); format: cell-based; conditions: Homo sapiens, HCT-116, 144 h, 6 days treatment
How it was run: as §1

| SMILES | IC50 [1] [µM] | IC50 [2] [µM] |
| --- | --- | --- |
| CN(C(=O)c1cc2c(cc1F)nc(N)c1c2cnn1C)[C@@H]1COc2cc(OC(F)(F)F)ccc21 [Example 259, 4-amino-7-fluoro-N,3-dimethyl-N-((3S)-6-(trifluoromethoxy)-2,3-dihydro-1-benzofuran-3-yl)-3H-pyrazolo[3,4-c]quinoline-8-carboxamide] | 0.062 | 3.24 |
| CN(C(=O)c1cc2c(cc1F)nc(N)c1c2cnn1C)[C@@H]1COc2cc(-c3cnn(C(F)(F)F)c3)ccc21 [Example 260, 4-amino-7-fluoro-N,3-dimethyl-N-((3S)-6-(1-(trifluoromethyl)-1H-pyrazol-4-yl)-2,3-dihydro-1-benzofuran-3-yl)-3H-pyrazolo-[3,4-c]quinoline-8-carboxamide] | 0.082 | 10.5 |
| CN(C(=O)c1ccc2nc(N)c3cn[nH]c3c2c1)[C@@H]1COc2cc(C(F)(F)F)ccc21 [Example 261, 4-amino-N-methyl-N-((3S)-6-(trifluoromethyl)-2,3-dihydro-1-benzofuran-3-yl)-1H-pyrazolo[4,3-c]quinoline-8-carboxamide] | 0.015 | 0.703 |
| Cc1n[nH]c2c1c(N)nc1ccc(C(=O)N(C)[C@@H]3COc4cc(C(F)(F)F)ccc43)cc12 [Example 262, 4-amino-N,3-dimethyl-N-((3S)-6-(trifluoromethyl)-2,3-dihydro-1-benzofuran-3-yl)-1H-pyrazolo[4,3-c]quinoline-8-carboxamide] | 0.065 | 1.95 |
| Cc1nn(C)c2c1c(N)nc1ccc(C(=O)N(C)[C@@H]3COc4cc(C(F)(F)F)ccc43)cc12 [Example 263, 4-amino-N,1,3-trimethyl-N-((3S)-6-(trifluoromethyl)-2,3-dihydro-1-benzofuran-3-yl)-1H-pyrazolo[4,3-c]quinoline-8-carboxamide] | 0.058 | 2.01 |
| Cc1n[nH]c2c1c(N)nc1cnc(C(=O)N(C)[C@@H]3COc4cc(C(F)(F)F)ccc43)cc12 [Example 264, 4-amino-N,3-dimethyl-N-((3S)-6-(trifluoromethyl)-2,3-dihydro-1-benzofuran-3-yl)-1H-pyrazolo[4,3-c][1,7]naph-thyridine-8-carboxamide] | 0.07 | 5.11 |
| Cc1nn(C)c2c1c(N)nc1cnc(C(=O)N(C)[C@@H]3COc4cc(C(F)(F)F)ccc43)cc12 [Example 265, 4-amino-N,1,3-trimethyl-N-((3S)-6-(trifluoromethyl)-2,3-dihydro-1-benzofuran-3-yl)-1H-pyrazolo[4,3-c][1,7]-naphthyridine-8-carboxamide] | 0.151 | 3.85 |
| Cc1nn(C)c2c1c(N)nc1cnc(C(=O)N(C)[C@@H]3COc4cc(S(F)(F)(F)(F)F)ccc43)cc12 [Example 266, 4-amino-N,1,3-trimethyl-N-((3S)-6-(pentafluoro-lambda~6~-sulfanyl)-2,3-dihydro-1-benzofuran-3-yl)-1H-pyrazolo[4,3-c][1,7]naph-thyridine-8-carboxamide] | 0.07 | 2.66 |
| Cc1nn(C)c2c1c(N)nc1cc(F)c(C(=O)N(C)[C@@H]3COc4cc(C(F)(F)F)ccc43)cc12 [Example 267, 4-amino-7-fluoro-N,1,3-trimethyl-N-((3S)-6-(trifluoro-methyl)-2,3-dihydro-1-benzo-furan-3-yl)-1H-pyrazolo[4,3-c]quinoline-8-carboxamide] | 0.036 | 1.98 |
| Cc1nn(C)c2c1c(N)nc1cc(F)c(C(=O)N(C)[C@@H]3COc4cc(-c5cnn(C(F)(F)F)c5)ccc43)cc12 [Example 268] | 0.047 | 8.56 |
| COc1ccc2c(c1)COC[C@H]2N(C)C(=O)c1cc2c3c(c(N)nc2cn1)[C@@H](C)OC3 [Example 269, (3R)-4-amino-N-((4S)-7-methoxy-3,4-dihydro-1H-2-benzopyran-4-yl)-N,3-dimeth-yl-1,3-dihydrofuro[3,4-c][1,7]-naphthyridine-8-carboxamide] | 0.039 | 2.93 |
| C[C@H]1OCc2c1c(N)nc1cnc(C(=O)N(C)[C@@H]3COCc4nc(C(F)(F)F)ccc43)cc21 [Example 270, (3R)-4-amino-N,3-dimethyl-N-((5S)-2-(trifluoromethyl)-5,8-dihydro-6H-pyrano[3,4-b]-pyridin-5-yl)-1,3-dihydrofuro-[3,4-c][1,7]naphthyridine-8-carboxamide] | 0.017 | 0.74 |
| C[C@@H]1OCc2c1c(N)nc1cnc(C(=O)N(C)[C@@H]3COCc4nc(C(F)(F)F)ccc43)cc21 [Example 271, (3S)-4-amino-N,3-dimethyl-N-((5S)-2-(trifluoromethyl)-5,8-dihydro-6H-pyrano[3,4-b]-pyridin-5-yl)-1,3-dihydrofuro-[3,4-c][1,7]naphthyridine-8-carboxamide] | 0.956 | 31.4 |
| CN(C(=O)c1cc2c3c(c(N)nc2cc1Cl)COC3)[C@@H]1COCc2nc(C(F)(F)F)ccc21 [Example 274, 4-amino-7-chloro-N-methyl-N-((5S)-2-(trifluoromethyl)-5,8-dihydro-6H-pyrano[3,4-b]-pyridin-5-yl)-1,3-dihydrofuro-[3,4-c]quinoline-8-carboxamide] | 0.004 | 0.229 |
| CN(C(=O)c1cc2c3c(c(N)nc2nc1Cl)COC3)[C@@H]1COCc2cc(C#N)ccc21 [Example 275, 4-amino-7-chloro-N-((4S)-7-cyano-3,4-dihydro-1H-2-benzopyran-4-yl)-N-methyl-1,3-dihydrofuro[3,4-c][1,8]-naphthyridine-8-carboxamide] | 0.083 | 2.67 |
| CN(C(=O)c1cc2c3c(c(N)nc2nc1Cl)COC3)[C@@H]1COCc2cc(C(F)(F)F)ccc21 [Example 276, 4-amino-7-chloro-N-methyl-N-((4S)-7-(trifluoromethyl)-3,4-dihydro-1H-2-benzopyran-4-yl)-1,3-dihydrofuro[3,4-c][1,8]-naphthyridine-8-carboxamide] | 0.016 | 0.417 |
| Cc1cc2nc(N)c3c(c2cc1C(=O)N(C)[C@@H]1COCc2nc(C(F)(F)F)ccc21)COC3 [Example 277, 4-amino-N,7-dimethyl-N-((5S)-2-(trifluoromethyl)-5,8-dihydro-6H-pyrano[3,4-b]pyridin-5-yl)-1,3-dihydrofuro[3,4-c]quin-oline-8-carboxamide] | 0.005 | 0.202 |
| CN(C(=O)c1cc2c3c(c(N)nc2cc1C(F)(F)F)COC3)[C@@H]1COCc2nc(C(F)(F)F)ccc21 [Example 278, 4-amino-N-methyl-7-(trifluoro-methyl)-N-((5S)-2-(trifluoro-methyl)-5,8-dihydro-6H-pyrano[3,4-b]pyridin-5-yl)-1,3-dihydrofuro[3,4-c]quinoline-8-carboxamide] | 0.056 | 4.29 |
| CN(C(=O)c1ccc2nc(N)c3ccncc3c2c1)[C@@H]1COCc2nc(C(F)(F)F)ccc21 [Example 279, 5-amino-N-methyl-N-((5S)-2-(trifluoromethyl)-5,8-dihydro-6H-pyrano[3,4-b]pyridin-5-yl)benzo[c][2,6]naphthyridine-9-carboxamide] | 0.017 | 0.706 |
| CN(C(=O)c1ccc2nc(N)c3ncncc3c2c1)[C@@H]1COCc2nc(C(F)(F)F)ccc21 [Example 280, 5-amino-N-methyl-N-((5S)-2-(trifluoromethyl)-5,8-dihydro-6H-pyrano[3,4-b]pyridin-5-yl)pyrimido[4,5-c]quinoline-9-carboxamide] | 0.461 | 5.05 |
| CN(C(=O)c1cc2c(cn1)nc(N)c1ccncc12)[C@@H]1COCc2nc(C(F)(F)F)ccc21 [Example 281, 5-amino-N-methyl-N-((5S)-2-(trifluoromethyl)-5,8-dihydro-6H-pyrano[3,4-b]pyridin-5-yl)pyrido[4,3-c][1,7]naph-thyridine-9-carboxamide] | 0.023 | 0.611 |
| CN(C(=O)c1cc2c(cn1)nc(N)c1ncncc12)[C@@H]1COCc2nc(C(F)(F)F)ccc21 [Example 282, 5-amino-N-methyl-N-((5S)-2-(trifluoromethyl)-5,8-dihydro-6H-pyrano[3,4-b]pyridin-5-yl)-pyrimido[4,5-c][1,7]naphthyr-idine-9-carboxamide] | 0.475 | 5.97 |
| COc1ccc2c(n1)COC[C@H]2N(C)C(=O)c1ccc2nc(N)c3cnn(C)c3c2c1 [Example 283, 4-amino-N-((5S)-2-methoxy-5,8-dihydro-6H-pyrano[3,4-b]-pyridin-5-yl)-N,1-dimethyl-1H-pyrazolo[4,3-c]quinoline-8-carboxamide] | 0.021 | 1.36 |
| COc1ccc2c(n1)COC[C@@H]2N(C)C(=O)c1ccc2nc(N)c3cnn(C)c3c2c1 [Example 284, 4-amino-N-((5R)-2-methoxy-5,8-dihydro-6H-pyrano[3,4-b]-pyridin-5-yl)-N,1-dimethyl-1H-pyrazolo[4,3-c]quinoline-8-carboxamide] | 0.674 | 15.6 |
| CCOc1ncc2c(n1)COC[C@H]2N(C)C(=O)c1ccc2nc(N)c3cnn(C)c3c2c1 [Example 285, 4-amino-N-((5S)-2-ethoxy-5,8-dihydro-6H-pyrano[3,4-d]-pyrimidin-5-yl)-N,1-dimethyl-1H-pyrazolo[4,3-c]quinoline-8-carboxamide] | 0.974 | 31.3 |
| CN(C(=O)c1ccc2nc(N)c3cnn(C)c3c2c1)[C@@H]1COCc2nc(C(F)(F)F)ccc21 [Example 286, 4-amino-N,1-dimethyl-N-((5S)-2-(trifluoromethyl)-5,8-dihydro-6H-pyrano[3,4-b]pyridin-5-yl)-1H-pyrazolo[4,3-c]quinoline-8-carboxamide] | 0.008 | 0.619 |
| CN(C(=O)c1cc2c(cn1)nc(N)c1cnn(C)c12)[C@@H]1COCc2cc(C(F)(F)F)ccc21 [Example 288, 4-amino-N,1-dimethyl-N-((4S)-7-(trifluoromethyl)-3,4-dihydro-1H-2-benzopyran-4-yl)-1H-pyrazolo[4,3-c][1,7]naphthyr-idine-8-carboxamide] | 0.006 | 0.072 |
